Molecular target: DNA-PK (Homo sapiens, UniProt P78527)
Assay: DNA-PK inhibition assay (radiometric 33P-ATP kinase assay)
Type: biochemical
Settings: 100 μM ATP; competitive tight-binding fit
Description: Compounds were screened for their ability to inhibit DNA-PK kinase using a standard radiometric assay. Briefly, in this kinase assay the transfer of the terminal ^33P-phosphate in ^33P-ATP to a peptide substrate is interrogated. The assay was carried out in 384-well plates to a final volume of 50 μL per well containing approximately 6 nM DNA-PK, 50 mM HEPES (pH 7.5), 10 mM MgCl2, 25 mM NaCl, 0.01% BSA, 1 mM DTT, 10 μg/mL sheared double-stranded DNA (obtained from Sigma), 0.8 mg/mL DNA-PK peptide ([…] obtained from American Peptide), and 100 μM ATP. Accordingly, compounds of the invention were dissolved in DMSO to make 10 mM initial stock solutions. Serial dilutions in DMSO were then made to obtain the final solutions for the assay. A 0.75 μL aliquot of DMSO or inhibitor in DMSO was added to each well, followed by the addition of ATP substrate solution containing ^33P-ATP (obtained from Perkin Elmer). The reaction was started by the addition of DNA-PK, peptide and ds-DNA. After 45 min. the reaction was quenched with 25 μL of 5% phosphoric acid. The reaction mixture was transferred to MultiScreen HTS 384-well PH plates (obtained from Millipore), allowed to bind for one hour, and washed three times with 1% phosphoric acid. Following the addition of 50 μL of Ultima Gold™ high efficiency scintillant (obtained from Perkin Elmer), the samples were counted in a Packard TopCount NXT Microplate Scintillation and Luminescence Counter (Packard BioScience). The Ki values were calculated using Microsoft Excel Solver macros to fit the data to the kinetic model for competitive tight-binding inhibition.

Question: For `CNC(=O)c1c(F)cnc2c([C@H](C)CNc3cc(-c4ccc(N(C)C5CCN(CC(F)(F)F)CC5)nc4)ncn3)cccc12` [Compound 1090], which Ki is on record?
Answer: < 0.03 µM

Question: How did the Ki turn out when `CNC(=O)c1c(F)cnc2c([C@H](C)CNc3cc(-c4cnc(CC5CCN(C(C)=O)CC5)nc4)ncn3)cccc12` [Compound 1044] was run?
Answer: < 0.03 µM

Question: How did the Ki turn out when `[2H]C([2H])([2H])C([2H])([2H])c1ncc(-c2cc(NC[C@@H](C)c3cccc4c(C(=O)NC)c(F)cnc34)ncn2)cn1` [Compound 1004] was run?
Answer: < 0.03 µM

Question: For `CNC(=O)c1ccnc2c([C@H](C)CNc3cc(-c4ccc(CC5CCN(C)CC5)nc4)ncn3)cccc12` [Compound 989], which Ki is on record?
Answer: < 0.03 µM

Question: `CNC(=O)c1c(F)cnc2c([C@H](C)CNc3cc(-c4cnc(OC(C)(C)C)nc4)ncn3)cccc12` [Compound 997] was tested. Which Ki did it give?
Answer: < 0.03 µM

Question: With `CNC(=O)c1ccnc2c([C@H](C)CNc3cc(-c4cnc(N5CCN(CC(F)(F)F)CC5)nc4)ncn3)cccc12` [Compound 781] as the compound, how does the Ki read?
Answer: < 0.03 µM

Question: `CNC(=O)c1c(F)cnc2c([C@H](C)CNc3cc(-c4ccc(N(C)C5CCN(CC(F)F)CC5)nc4)ncn3)cccc12` [Compound 1089] was tested. Which Ki did it give?
Answer: < 0.03 µM

Question: For `Cc1ccc(-c2cc(NC[C@@H](C)c3cccc4c3ncc3[nH][nH]c(=O)c34)ncn2)cn1` [Compound 993], which Ki is on record?
Answer: < 0.03 µM

Question: `Cc1ccc(-c2cc(NC[C@@H](C)c3ccnc4c3OCCO4)ncn2)cn1` (single isomer, unassigned) [Compound 443] was tested. Which Ki did it give?
Answer: < 0.03 µM

Question: `CNC(=O)c1c(F)cnc2c([C@H](C)CNc3cc(-c4cnc(NC5CC5)nc4)ncn3)cccc12` [Compound 1032] was tested. Which Ki did it give?
Answer: < 0.03 µM

Question: With `CNC(=O)c1ccnc2c([C@H](C)CNc3cc(-c4ccc(CC5CCN(C(C)=O)CC5)nc4)ncn3)ccc(F)c12` [Compound 1018] as the compound, how does the Ki read?
Answer: < 0.03 µM

Question: For `CNC(=O)c1ccnc2c([C@H](C)CNc3cc(-c4cnc(NC5CCN(CC(F)F)CC5)nc4)ncn3)ccc(F)c12` [Compound 1038], which Ki is on record?
Answer: < 0.03 µM

Question: How did the Ki turn out when `CNC(=O)c1c(F)cnc2c([C@H](C)CNc3cc(-c4ccc(NC5CCN(CC(F)(F)F)CC5)nc4)ncn3)cccc12` [Compound 1086] was run?
Answer: < 0.03 µM

Question: For `CNC(=O)c1ccnc2c([C@H](C)CNc3cc(-c4cnc(NC5CC5)nc4)ncn3)cccc12` [Compound 1029], which Ki is on record?
Answer: < 0.03 µM

Question: `CNC(=O)c1ccnc2c([C@H](C)CNc3cc(-c4ccc(N(C)C5CCN(C(C)=O)CC5)nc4)ncn3)cccc12` [Compound 1088] was tested. Which Ki did it give?
Answer: < 0.03 µM

Question: For `CNC(=O)c1c(F)cnc2c([C@H](C)CNc3cc(-c4cnc(NC5CCN(CC(F)F)CC5)nc4)ncn3)cccc12` [Compound 1037], which Ki is on record?
Answer: < 0.03 µM

Question: For `CNC(=O)c1ccnc2c([C@H](C)CNc3cc(-c4ccnc(C(C)OC)c4)ncn3)cccc12` (single isomer, unassigned) [Compound 1039], which Ki is on record?
Answer: < 0.03 µM

Question: How did the Ki turn out when `CNC(=O)c1c(F)cnc2c([C@H](C)CNc3cc(-c4cnc(COC(C)C)nc4)ncn3)cccc12` [Compound 1015] was run?
Answer: < 0.03 µM

Question: With `CNC(=O)c1ccnc2c([C@H](C)CNc3cc(-c4cnc(CC5CCN(CC(F)(F)F)CC5)nc4)ncn3)cccc12` [Compound 1047] as the compound, how does the Ki read?
Answer: < 0.03 µM

Question: `Cc1ccc(-c2cc(NC[C@@H](C)c3cccc4c3ncc3c4c(=O)[nH]n3C)ncn2)cn1` [Compound 995] was tested. Which Ki did it give?
Answer: < 0.03 µM

Question: How did the Ki turn out when `CNC(=O)c1ccnc2c([C@H](C)CNc3cc(-c4ccc(C5(O)COC5)nc4)ncn3)ccc(F)c12` [Compound 1069] was run?
Answer: < 0.03 µM

Question: How did the Ki turn out when `CNC(=O)CNc1ncc(-c2cc(NC[C@@H](C)c3cccc4c(C(=O)NC)c(F)cnc34)ncn2)cn1` [Compound 1075] was run?
Answer: < 0.03 µM

Question: Which Ki does the source give for `CNC(=O)c1ccnc2c([C@H](C)CNc3cc(-c4cnc(NCCNC(C)=O)nc4)ncn3)cccc12` [Compound 1051] here?
Answer: < 0.03 µM

Question: Which Ki does the source give for `CCN(CC)c1cc(-c2cc(NC[C@@H](C)c3cccc4c(C(=O)NC)ccnc34)ncn2)ccn1` [Compound 892] here?
Answer: < 0.03 µM

Question: For `CNC(=O)c1ncnc2c([C@H](C)CNc3cc(-c4ccc(C(=O)NCCC#N)nc4)ncn3)cccc12` [Compound 1016], which Ki is on record?
Answer: < 0.03 µM

Question: How did the Ki turn out when `CNC(=O)c1c(F)cnc2c([C@H](C)CNc3cc(-c4cnc(COC)nc4)ncn3)cccc12` [Compound 999] was run?
Answer: < 0.03 µM

Question: Which Ki does the source give for `CNC(=O)c1ccnc2c([C@H](C)CNc3cc(-c4cnc(OCC(F)(F)F)nc4)ncn3)cccc12` [Compound 769] here?
Answer: < 0.03 µM

Question: How did the Ki turn out when `CNC(=O)c1ccnc2c([C@H](C)CNc3cc(-c4cnc(NCC(=O)N(C)C)nc4)ncn3)cccc12` [Compound 1077] was run?
Answer: < 0.03 µM

Question: Which Ki does the source give for `CNC(=O)c1c(F)cnc2c([C@H](C)CNc3cc(-c4cnc(N(C)C5CCN(C(C)=O)CC5)nc4)ncn3)cccc12` [Compound 1059] here?
Answer: < 0.03 µM

Question: How did the Ki turn out when `CNC(=O)c1c(F)cnc2c([C@H](C)CNc3cc(-c4ccc(NC5CCN(C)CC5)nc4)ncn3)cccc12` [Compound 1063] was run?
Answer: < 0.03 µM

Question: Which Ki does the source give for `CNC(=O)c1ccnc2c([C@H](C)CNc3cc(-c4cnc5c(c4)C(C)OC5)ncn3)cccc12` (single isomer, unassigned) [Compound 1012] here?
Answer: < 0.03 µM

Question: For `CNC(=O)c1ccnc2c([C@H](C)CNc3cc(-c4ccc(C5(O)COC5)nc4)ncn3)cccc12` [Compound 1067], which Ki is on record?
Answer: < 0.03 µM

Question: `CNC(=O)c1ccnc2c([C@H](C)CNc3cc(-c4cnc(OC5CCN(C)CC5)nc4)ncn3)ccc(F)c12` [Compound 1073] was tested. Which Ki did it give?
Answer: < 0.03 µM

Question: For `CNC(=O)c1c(F)cnc2c([C@H](C)CNc3cc(-c4cnc(NCCNC(C)=O)nc4)ncn3)cccc12` [Compound 1052], which Ki is on record?
Answer: < 0.03 µM

Question: With `CNC(=O)c1c(F)cnc2c([C@H](C)CNc3cc(-c4ccc(CC5CCN(C(C)=O)CC5)nc4)ncn3)cccc12` [Compound 1008] as the compound, how does the Ki read?
Answer: < 0.03 µM

Question: How did the Ki turn out when `CNC(=O)c1c(F)cnc2c([C@H](C)CNc3cc(-c4ccc(NC5CCN(C(C)=O)CC5)nc4)ncn3)cccc12` [Compound 1065] was run?
Answer: < 0.03 µM

Question: How did the Ki turn out when `CNC(=O)c1ncnc2c([C@H](C)CNc3cc(-c4ccc(F)nc4)ncn3)cccc12` [Compound 1006] was run?
Answer: < 0.03 µM

Question: How did the Ki turn out when `CNC(=O)c1ncnc2c([C@H](C)CNc3cc(-c4ccc(C#N)cc4)ncn3)cccc12` [Compound 1010] was run?
Answer: < 0.03 µM

Question: For `CNC(=O)c1c(F)cnc2c([C@H](C)CNc3cc(-c4ccc(N(C)C5CCN(C)CC5)nc4)ncn3)cccc12` [Compound 1087], which Ki is on record?
Answer: < 0.03 µM

Question: With `Cc1ccc(-c2cc(NC[C@@H](C)c3cccc4c3ncc3[nH]n(C)c(=O)c34)ncn2)cn1` [Compound 994] as the compound, how does the Ki read?
Answer: < 0.03 µM

Question: Which Ki does the source give for `CNC(=O)c1ccnc2c([C@H](C)CNc3cc(-c4cnc(CC5CCN(C)CC5)nc4)ncn3)cccc12` [Compound 1001] here?
Answer: < 0.03 µM

Question: With `CNC(=O)c1ccnc2c([C@H](C)CNc3cc(-c4cnc(N(C)C5CCN(CC(F)F)CC5)nc4)ncn3)cccc12` [Compound 1060] as the compound, how does the Ki read?
Answer: < 0.03 µM

Question: `CNC(=O)c1ccnc2c([C@H](C)CNc3cc(-c4cnc(NC5CCN(C(C)=O)CC5)nc4)ncn3)ccc(F)c12` [Compound 1055] was tested. Which Ki did it give?
Answer: < 0.03 µM

Question: How did the Ki turn out when `COc1ccccc1[C@H](C)CNc1cc(-c2ccc(NCC(O)CO)nc2)ncn1` (single isomer, unassigned) [Compound 200] was run?
Answer: < 0.03 µM

Question: With `CNC(=O)c1c(F)cnc2c([C@H](C)CNc3cc(-c4cnc(NCC(F)(F)F)nc4)ncn3)cccc12` [Compound 1033] as the compound, how does the Ki read?
Answer: < 0.03 µM

Question: For `CNC(=O)c1ccnc2c([C@H](C)CNc3cc(-c4cnc(OC)c(CO)c4)ncn3)ccc(F)c12` [Compound 883], which Ki is on record?
Answer: < 0.03 µM

Question: Which Ki does the source give for `CNC(=O)c1c(F)cnc2c([C@H](C)CNc3cc(-c4ccc(CC5CCN(CC(F)(F)F)CC5)nc4)ncn3)cccc12` [Compound 1021] here?
Answer: < 0.03 µM

Question: With `Cc1ccc(-c2cc(NCC(C)c3cncc4c3OCC4)ncn2)cn1` (stereo not shown) [Compound 418] as the compound, how does the Ki read?
Answer: < 0.03 µM

Question: For `CNC(=O)c1ccnc2c([C@H](C)CNc3cc(-c4cnc(NC5CCN(CC(F)F)CC5)nc4)ncn3)cccc12` [Compound 1034], which Ki is on record?
Answer: < 0.03 µM

Source: patent US10442791B2, “DNA-PK inhibitors” (Vertex Pharmaceuticals Incorporated, priority 2012, dated 2019)
